Here are results for 21 compounds from patent US5563142A, “Diaromatic substituted compounds as anti-HIV-1 agents” (The Upjohn Company, priority 1994, dated 1996).

SMILES strings stand for the structures.

Experiment [1] concerns the target T1, viral reverse transcriptase (Human immunodeficiency virus type 1 group M subtype B, UniProt P04585).
T1 construct: Viral reverse transcriptase is found in extracts from bacterial clones; made in house; host or cells: Escherichia coli (extracts of bacterial clones, by the procedure of Larder et al., EMBO J. 6:3133-3137, 1987)
The experiment in a line: Viral reverse transcriptase inhibition, cell free assay. Type of experiment: biochemical, human immunodeficiency virus (HIV-1). As to conditions: read-out: RT % INHIBITION (100 μM), 100 μM; poly rC or poly rG template. From the text:
The utility of the diaromatic substituted piperazines (III), the anti-AIDS piperazines (IV) and the indoles (V) of this invention can be determined by their ability to inhibit viral reverse transcriptase, an enzyme essential for human immunodeficiency virus replication. This enzyme has characteristics which differentiate it from other known cellular polymerases and it is a unique enzyme which is not found in uninfected cells. Viral reverse transcriptase is found in extracts from bacterial clones prepared according to the procedure described in AIDS Virus Reverse Transcriptase defined by high level expression in Escherichia coli, EMBO J. 6:3133-3137 (1987). Inhibition of this enzyme is determined in a cell free assay which measures the level of radioactive precursors incorporated into DNA. Extracts prepared according to the procedure of Science, 1125-1129 (1981) are incubated in a mixture of inhibitor, 20 mM dithiothreitol, 60 mM sodium chloride, 0.05% NP-40, 10 mM magnesium chloride, 50 mM Tris pH 8.3, 10 μM [^35 S]-labeled deoxynuleoside-5'-triphosphate, 10 μg/ml RNA template (poly rC or poly rG) and 5 μg/ml DNA primer (oligo dG or oligo dT) for 30 minutes at 37° C. Incorporation of radio-labeled percursor is determined by spotting aliquots of the reaction mixture on DE81 paper, washing the papers to remove unincorporated percursor, drying and determining counts. The results (IC50 means the concentration, in μM of drug, required to inhibit the reverse transcriptase activity to the extent of 50%) of various assay(s) are combined and reported as % inhibition and IC50 (calculated).
^1 Viral reverse transcriptase is found in extracts from bacterial
clones prepared according to the procedure described by Larder, B.,
Purifoy D., Powell, K. and Darby, G., AIDS virus reverse transcriptase
defined by high level expression in Escherichia coli., EMBO J. 6,
3133-3137 (1987). Inhibition of this enzyme is determined in a cell free
assay which measures the level of radioactive precursors incorporated int
DNA. Extracts prepared according to the procedure of Kleid, D. G., et
al., Science, 1125-1129 (1981) are incubated in a mixture of inhibitor, 2
mM dithiothreitol, 60 mM sodium chloride, 0.05% NP40, 10 mM magnesium
chloride, 50 mM Tris pH 8.3, 10 μM [^35 Slabeled
deoxynucleoside5triphosphate, 10 μg/ml RNA template (poly rC or poly
rG) and 5 μg/ml DNA primer (oligo dG or oligo dT) for 15 minutes at
37°. Incorporation of radio labeled precursor is determined by
harvesting the trichloroacetic acid precipitated reaction mixtures on
glass fiber filters, drying, and determining counts. The results of
various assays are combined and reported as % inhibition at a 100 μM

Experiment [2] has as its system HIV in primary human peripheral blood lymphocytes. The experiment can be described thus: Primary PBL assay: inhibition of viral replication (p24 & RNA). Type of experiment: cell-based. Particulars: Human immunodeficiency virus 1, Lymphocyte, primary human lymphocytes infected with HIV, days three and four, read-out: PBL INHIBITION OF VIRAL REPLICATION (p24 & RNA) ED50. On the procedure: ^3 The utility of the compounds of the invention is further
infection in primary peripheral blood lymphocytes (primary PBL assay). Th
primary PBL assay offers the following advantages:
(a) The assays are performed with primary human lymphocytes. Thereby,
undesired testing of transformed cell lines is avoided in which host cell
and virus may have undergone processes of mutual adaptation. Performance
of cell culture in serum containing media closely mimics the in vivo
situation. (b) The primary PBL assay distinguishes between true antiviral
effect which is due to the drug and cytostatic/cytotoxic reactions. (c)
Viral replication is precisely followed by kinetic measurement of viral
nucleic acids and proteins. (d) Nucleic acids (total HIVRNA intra and
extracellular) and protein (secreted p24) are measured in parallel which
permits one to differentiate between the compound's effect on virus
replication and on the expression of viral proteins. This leads to
additional information regarding the efficacy of the test compound. (e)
Tolerance of the cell culture against low amounts of organic solvents als
permits the investigation of hydrophobic substances. (f) The dose of the
drug causing half maximal suppression of virus replication is determined.
(g) The screening system is standardized and automated to a high degree.
The primary PBL assay uses the following procedure:
Effects of the compounds of the invention on cell proliferation are determined by lymphocyte proliferation assays. Starting with a 100 micromolar solution, the compound is serially diluted 10 fold. One tenth of the concentration of a compound causing half maximal inhibition of cellular proliferation is employed for all subsequent testing.
Peripheral human lymphocytes are isolated by density gradient centrifugation. After stimulation by mitogen the cells are infected with a standardized preparation of HIV. Subsequently, the infected cells are cultured in the presence of the drug for four days. Individual cultures are established to measure viral replication three and four days following infection. Untreated cells and AZT-treated cells are included as controls in parallel with the drugs under investigation.
The amount of viral core protein p24 synthesized and release by the infected cells is determined in the supernatant by the capture-ELISA technique on days three and four. By comparing with a standard preparation, the amount of protein produced by the virus infected cells is quantified.
The total amount of viral RNA synthesized by the infected lymphocytes is determined by a special nucleic acid hybridization on days three and four of culture. By including a standard preparation of HIV-RNA the amount of synthesized RNA is quantified.
In addition, viability of HIV-infected cells is determined in parallel with assays for viral p24 and RNA. In order to evaluate the half maximal antiviral effect of the drug, a concentration dependency of the drug action is measured.
Numerous examples of the compounds of the invention are assayed according to this procedure. The anti-HIV activity, as measured by the inhibition of the release of core p24 protein in HIV infected human lymphocytes, is used to calculate ED50 -antiviral (the concentration required to give a 50% reduction in p24 synthesis).

A word on the inhibition: it is the share of the control response that was lost under treatment. Turning to `CC(C)Nc1ccnnc1N1CCN(C(=O)c2cc3ccccc3[nH]2)CC1` [Example 49, 1-(Indolyl-2-carbonyl)-4-[4-(1-methylethylamino)-3-pyridazinyl]piperazine, methane sulfonate], the inhibition at 100 µM in experiment [1] lay within 84 to 94%. In addition, the EC50 in experiment [2] is at most 100 nM.

For `O=C(c1cc2ccccc2[nH]1)N1CCN(c2ncccc2NC2CCCC2)CC1` [Example 56, 1-(Indolyl-2-carbonyl)-4-(3-cyclopentylamino-2-pyridinyl)piperazine], the inhibition at 100 µM in experiment [1] lay in the range of 79 to 93%. Moreover, the EC50 in experiment [2] fell in the range of 100 to 1000 nM.

Take `O=C(c1cc2cc(F)ccc2[nH]1)N1CCN(c2ncccc2NCC(F)(F)F)CC1` [Example 34, 1-[5-Fluoroindolyl-2-carbonyl]-4-[3-(2,2,2-trifluoroethylamino)-2-pyridinyl]piperazine]: the inhibition at 100 µM in experiment [1] is 41%. Besides, in experiment [2], the EC50 is below 10000 nM.

In the case of `COc1cc2[nH]c(C(=O)N3CCN(c4ncccc4NC(C)C)CC3)cc2cc1Br` [Example 94, 1-[5-Bromo-6-methoxyindolyl-2-carbonyl]-4-[3-(1-methylethylamino)-2-pyridinyl]piperazine], the inhibition at 100 µM in experiment [1] worked out at 85%. Also, the EC50 in experiment [2] is 10 to 100 nM.

As for `CC(C)Nc1cccnc1N1CCN(C(=O)c2cc3ccc(N(C)C)cc3[nH]2)CC1` [Example 95, 1-[6-(N,N-Dimethylamino)indolyl-2-carbonyl]-4-[3-(1-methylethylamino)-2-pyridinyl]piperazine], the inhibition at 100 µM in experiment [1] fell in the range of 81 to 93%. The EC50 in experiment [2] was below 1 nM.

Take `CNc1cccnc1N1CCN(C(=O)c2cc3cc(F)ccc3[nH]2)CC1` [Example 63, 1-(5-Fluoroindolyl-2-carbonyl)-4-[3-methylamino-2-pyridinyl]piperazine]: the inhibition at 100 µM in experiment [1] is 82 to 88%. In experiment [2], the EC50 turned out to be 1000 nM.

Take `Cc1ccc2[nH]c(C(=O)N3CCN(c4ncccc4NC(C)C)CC3)cc2c1` [Example 89, 1-[5-Methylindolyl-2-carbonyl]-4-[3-(1-methylethylamino)-2-pyridinyl]piperazine]: in experiment [1], the inhibition at 100 µM was in the range of 61 to 74%. In addition, the EC50 in experiment [2] turned out to be 100 nM.

In the case of `Cc1cccc2[nH]c(C(=O)N3CCN(c4ncccc4NC(C)C)CC3)cc12` [Example 97, 1-[4-Methylindolyl-2-carbonyl]-4-[3-(1-methylethylamino)-2pyridinyl]-piperazine], the inhibition at 100 µM in experiment [1] was in the range of 52 to 80%. The EC50 in experiment [2] is at most 10 nM.

`CC(C)Nc1cncnc1N1CCN(C(=O)c2cc3cc(F)ccc3[nH]2)CC1` [Example 48, 1-(5-Fluoroindolyl-2-carbonyl)-4-[5-(1-methylethylamino)-4-pyrimidinyl]piperazine]: in experiment [1], the inhibition at 100 µM lay within 63 to 92%. Moreover, in experiment [2], the EC50 is 10 to 100 nM.

Consider `CC(C)Nc1cccnc1N1CCN(C(=O)c2cc3ccc(F)cc3[nH]2)CC1` [Example 132], for which, in experiment [1], the inhibition at 100 µM is 95 to 98%. In addition, in experiment [2], the EC50 was 1 to 10 nM.

On to `COc1ccc2cc(C(=O)N3CCN(c4ncccc4NC(C)C)CC3)[nH]c2c1` [Example 87, 1-[6-Methoxyindolyl-2-carbonyl]-4-[3-(1-methylethylamino)-2-pyridinyl]-piperazine], for which the inhibition at 100 µM in experiment [1] fell in the range of 96 to 98%. Also, the EC50 in experiment [2] came to 10 nM.

Regarding `CNc1cccnc1N1CCN(C(=O)c2cc3cc(OC)ccc3[nH]2)CC1` [Example 64, 1-(5-Methoxyindolyl-2-carbonyl)-4-[3-(methylamino)-2-pyridinyl]piperazine], the inhibition at 100 µM in experiment [1] lay within 88 to 94%. Besides, in experiment [2], the EC50 is at most 1000 nM.

As to `COc1cccc2[nH]c(C(=O)N3CCN(c4ncccc4NC(C)C)CC3)cc12` [Example 88, 1-[4-Methoxyindolyl-2-carbonyl]-4-[3-(1-methylethylamino)-2-pyridinyl]piperazine], the inhibition at 100 µM in experiment [1] lay in the range of 56 to 88%. Moreover, the EC50 in experiment [2] was 100 nM.

`CC(C)Nc1ccnnc1N1CCN(C(=O)c2cc3cc(F)ccc3[nH]2)CC1` [Example 50, 1-(5-Fluoroindolyl-2-carbonyl)-4-[4-(1-methylethyl)amino)-3-pyridazinyl]piperazine, methane sulfonate]: the inhibition at 100 µM in experiment [1] lay in the range of 84 to 97%. For the same compound, the EC50 in experiment [2] came out at 100 nM.

Take `CC(C)Nc1cccnc1N(C)CCCN(C)C(=O)c1cc2ccccc2[nH]1` [Example 53, N,N'-Dimethyl-N-(indolyl-2-carbonyl)-N'-[3-(1-methylethyl-amino)-2-pyridyl]-1,3-propanediamine]: in experiment [1], the inhibition at 100 µM fell in the range of 82 to 94%. Further, the EC50 in experiment [2] is 1 to 10 nM.

Take `Cc1c(C(=O)N2CCN(c3ncccc3NC(C)C)CC2)[nH]c2ccccc12` [Example 73, 1-[3-methylindolyl-2-carbonyl]-4-[3-(1-methylethylamino)-2-pyridinyl]piperazine]: the inhibition at 100 µM in experiment [1] was in the range of 94 to 95%. Besides, in experiment [2], the EC50 was below 1 nM.

Turning to `CC(C)Nc1cccnc1N1CCCN(C(=O)c2cc3cc(F)ccc3[nH]2)CC1` [Example 84], the inhibition at 100 µM in experiment [1] was 97%. Besides, the EC50 in experiment [2] is below 1 nM.

With `CCC(C)Nc1cccnc1N1CCN(C(=O)c2cc3ccccc3[nH]2)CC1` (stereo not drawn) [Example 99], in experiment [1], the inhibition at 100 µM was 93 to 95%. Moreover, the EC50 in experiment [2] fell in the range of 1 to 10 nM.

Regarding `CC(C)Nc1cccnc1N1CCN(C(=O)c2cc3cc(OCc4ccccc4)ccc3[nH]2)CC1` [Example 36, 1-[5-Benzyloxyindolyl-2-carbonyl]-4-[3-(1-methylethyl)amino-2-pyridinyl]piperazine], the inhibition at 100 µM in experiment [1] lay in the range of 69 to 84%. The EC50 in experiment [2] was 10 nM.

Consider `CC(C)Nc1cccnc1N1CCN(C(=O)c2cc3cc4c(cc3[nH]2)OCO4)CC1` [Example 90, 1-[5,6-Methylenedioxyindolyl-2-carbonyl]-4-[3-(1-methylethylamino)-2-pyridinyl]piperazine], for which the inhibition at 100 µM in experiment [1] amounted to 96%. In experiment [2], the EC50 is below 1 nM.

With `COc1cc2cc(C(=O)N3CCN(c4ncccc4NC(C)C)CC3)[nH]c2cc1OC` [Example 72, 1-[5,6-Dimethoxyindolyl-2-carbonyl]-4-[3-(1-methylethylamino)-2-pyridinyl]piperazine], the inhibition at 100 µM in experiment [1] was in the range of 43 to 66%. The EC50 in experiment [2] is below 10 nM.
